Data published in US20230340061A1, “PEPTIDES AND METHODS FOR THE TREATMENT OF MULTIPLE SCLEROSIS” (IMCYSE SA, priority 2020, published 2023).

What was measured:
[1] = tested on: CD4+ T cells of patients with multiple sclerosis; assay: Generation of antigen specific CD4+ T cells, CD154 (CD40L) expression by flow cytometry; type: cell-based, human
Description: PBMCs were isolated from blood samples of patients with multiple sclerosis treated by dimethyl fumarate (DMF) on Lymphoprep density gradients.
CD14+ monocytes were isolated from these PBMCs by performing positive immunomagnetic separation with CD14 microbeads (Miltenyi Biotec, 130-050-201) according to the supplier recommendations. CD14+ monocytes were cultured for six days and maturated to generate autologous dendritic cells (mDC). CD19+ B cells were isolated from the CD14- PBMCs fraction by performing positive immunomagnetic separation with CD19 microbeads (Miltenyi Biotec, 130-050-301) according to the supplier recommendations. CD19+ B cells were cultured and immortalized with EBV to generate autologous lymphoblastoid cell lines (LCL).
(§1) Naïve CD4+ T cells were also purified from the CD14- PBMCs fraction by performing negative immunomagnetic separation with naïve CD4+ T cell isolation kit (Miltenyi Biotec, 130-094-131) according to the supplier recommendations. Naïve CD4+ T cells were co-cultured with autologous mDC or LCL in the presence of P2 and P4 peptides. The CD4+ T cells were re-stimulated periodically, about every 10-12 days.
The ability of the peptides to generate antigen specific CD4+ T cells was evaluated by flow cytometry analysis of the TCR induced surface activation marker CD154 (CD40L) expression after overnight co-culture at resting state with autologous LCL without (no peptide) or with the peptides (P2 or P4). The surface expression of the lytic marker Fas ligand (CD178) was also evaluated by flow cytometry analysis after overnight co-culture at resting state with autologous LCL without (no peptide) or with the peptide (P4).

[2] = tested on: CD4+ T cells of patients with multiple sclerosis; assay: Cytokine secretion in CD4+ T cell culture supernatants (LEGENDplex Human Th Panel); type: cell-based; conditions: for specific secretion of cytokine (IL-5): culture supernatant of MS017 (S15) CD4+ cell line, P4 vs C-WT epitope peptides
Description: as §1
The ability of the peptides to induce cytokines secretion in CD4+ T cells culture supernatants was evaluated by flow cytometry analysis after overnight co-culture at resting state with autologous mDC without (no peptide) or with the peptides (P2 or P4). Supernatants were analyzed with the LEGENDplex Human Th Panel (13-plex) (BioLegend, 740721) according to the supplier recommendations.

[3] = tested on: Experimental Auto-Immune Encephalomyelitis (EAE); assay: Therapeutic administration in MOG35-55-induced EAE; type: in vivo; conditions: 30 μg s.c. with alum, days 4, 9, 14, 19
Description: The study used a total of 48 female C57BL/6 mice (Taconic Biosciences, 9 weeks old on Day 0). Mice were acclimated for 7 days prior to the first injection. Mice were assigned to groups in a balanced manner to achieve similar average weight across the groups at the start of the study.
Dosing of all mice was performed once on each of the days indicated in Table 2, s.c., at a volume of 0.05 mL/site, each mouse receiving injection at two sites, for a total of 0.1 mL/mouse/dosing day. IMCY-0189 or P4 peptide total dose was 30 μg per administration.
Lyophilized immunogenic peptide IMCY-0189 with the sequence […] (SEQ ID NO: 260), comprising an oxidoreductase motif HCPYC (SEQ ID NO: 24), a linker GW, a murine Myelin Oligodendrocyte Glycoprotein (MOG35-55) MHCII T cell epitope […] (SEQ ID NO: 261) and a flanking sequence HLYR (SEQ ID NO: 262) (Smart Bioscience) was solubilized immediately before use. Lyophilized IMCY-0189 was thawed at room temperature for 10 minutes, resuspended in Na Acetate buffer 50 mM NaCl 0.9% pH 5.4 and incubated at room temperature for 10 minutes. Reconstituted peptide was then mixed with Imject™ Alum Adjuvant before injection.
Lyophilized immunogenic peptide P4 with the sequence […] (SEQ ID NO: 27), comprising an oxidoreductase motif KHCPYC (SEQ ID NO: 50), a linker VRY, a human Myelin Oligodendrocyte Glycoprotein (MOG201-212) MHCII T cell epitope […] (SEQ ID NO: 2) and a flanking sequence TLFKK (SEQ ID NO: 263) (Smart Bioscience) was solubilized immediately before use. Lyophilized P4 was thawed at room temperature for 10 minutes, resuspended in Na Acetate buffer 50 mM NaCl 0.9% pH 5.4 and incubated at room temperature for 10 minutes. Reconstituted peptide was then mixed with Imject™ Alum Adjuvant before injection.
EAE was induced in all mice as follows: • Day 0, Hour 0—Immunization with a peptide corresponding to the amino acids 35-55 of MOG (MOG35-55)/CFA • Day 0, Hour 2—Injection of pertussis toxin • Day 1, Hour 0—2nd injection of pertussis toxin (24 hours after initial immunization).
Mice were injected subcutaneously at two sites in the back with the emulsion component (containing MOG35-55) of Hooke Kit™ MOG35-55/CFA Emulsion PTX, catalog number EK-2110 (lot #131, Hooke Laboratories, Lawrence MA). One site of injection was in the area of upper back, approximately 1 cm caudal of the neck line. The second site was in the area of lower back, approximately 2 cm cranial of the base of the tail. The injection volume was 0.1 mL at each site. Each mouse received 200 μg of MOG35-55.
Within 2 hours of the injection of emulsion, and then again 24 hours after the injection of emulsion, the pertussis toxin component of the kit was administered intraperitoneally. The pertussis toxin (lot #1008, Hooke Laboratories) was administered at 90 ng/dose for both injections and the volume of each injection was 0.1 mL.
Animals were scored daily starting from Day 7 to the end of the study. Scoring was performed blind, by a person unaware of both treatment and of previous scores for each mouse. In-between scores were assigned when the clinical signs fell between two above defined scores.
On Day 28, blood was collected from all mice into gel clot activator tubes and allowed to clot at room temperature for ˜30 minutes. Blood is then centrifuged at ˜10000 g for 5 minutes. Serum was transferred into Eppendorf tubes and stored at −80° C. until shipment to Quanterix™. Serum Neurofilament light (NF-L) protein levels were quantified using Simoa® NF-light Advantage kit, a digital immunoassay for the quantitative determination of NF-L in serum, plasma and CSF. The used antibodies (Uman Diagnostics, Umea Sweden) also cross react with murine, bovine and macaque NF-L epitopes and as such, this assay can be used for research with these species. All samples were tested in duplicate at a dilution factor of 40×. […]

[4] = tested on: Experimental Auto-Immune Encephalomyelitis (EAE); assay: Prophylactic administration in adoptive-transfer EAE; type: in vivo, mice; conditions: 100 μg s.c. with alum, days −21, −14, −7, +2, +9
Description: EAE was induced in recipient mice by immunizing donor B6.SJL mice with MOG35-55/CFA, and then, 11 days later, by taking their spleens and restimulating them in culture with MOG35-55 peptide for 3 days. Those cells, now fully encephalitogenic, were injected on Day 0 into recipient groups of mice, which developed EAE.
B6.SJL donor mice were acclimated for 13 days before the start of the study and were 9 weeks old at the time of immunization. Donor mice were used to generate encephalitogenic cells as follows: • Day −14: Immunization with MOG35-55/CFA. • Day −3: Spleen harvest. Mice were euthanized and spleens were harvested, pooled and cell suspension prepared. Cell suspension, at 4 to 5 million cells/mL in T150 flasks, were set up in cultures in the presence of MOG35-55 peptide (20 μg/mL), IL-12 ([…]) and anti-IFNγ (7 μg/mL) for 3 days to generate encephalitogenic T cells. • Day 0: Cell collection and transfer. Cells were collected and spun down, resuspended in RPM11640 (no FCS), counted, and injected into recipient mice at 10 million cells per mouse.
Recipient mice were acclimated for 6 days prior to the first injection and were 6 weeks old when treatment started (on Day −21). Mice were assigned to groups in a balanced manner, to achieve similar average weight across the groups at the start of the study.
Dosing of all mice was performed once on each of the days indicated in Table 4, s.c., at a volume of 0.05 mL/site, each mouse receiving injection at two sites, for a total of 0.1 mL/mouse/dosing day, corresponding to 100 μg of peptide.
For Vehicle treatment, Imject™ Alum solution was prepared at each dosing day. IMCY-0189 has the sequence described in example 6. Lyophilized IMCY-0189 was thawed at room temperature for 10 minutes, resuspended in Na Acetate buffer 50 mM pH 5.4 and incubated at room temperature for 5 minutes. Reconstituted peptide was then mixed with Imject™ Alum Adjuvant before injection.
At termination, blood was collected from all mice into tubes containing K2EDTA and mixed gently. Blood was then centrifuged at ˜10000 g for 5 minutes. Plasma was transferred into Eppendorf tubes and stored at −80° C. until shipment to Quanterix™. Plasma Neurofilament light (NF-L) protein levels were quantified using Simoa© NF-light Advantage kit as described in example 6.
EAE scoring, terminal collection, histology analyses and statistical analyses were performed as described in example 6.

[5] = molecular target: T1, soluble HLA-DRB1*03:01 human MHC II protein (human); assay: soluble-phase competition vs biotin-labelled control peptide, Eu3+-streptavidin time-resolved fluorescence
T1 construct: Soluble protein purchased from the Benaroya Research Institute; also called HLA-DR3; DR3

[6] = molecular target: T2, soluble HLA-DRB1*04:01 human MHC II protein (human); assay: as above
T2 construct: Soluble protein purchased from the Benaroya Research Institute; also called HLA-DR4; DR4

DPHFLRVPCWKITLFKK [short C-WT, reference compound]
specific induction of effector cells (CD3+CD4+CD154+) ([1]; P4-specific CD4+ cell lines of patients MS017 (S14) and MS026 (S13), overnight co-culture): specific induction
specific secretion of cytokine (IL-5) [2]: specific secretion

HCPYCGWYRSPFSRVVHLYR [IMCY-0189]
mortality ([3]; to day 28): No mice died
AUC (area under the curve) of EAE scores ([3]; vs Saline group): statistically significant reduced
MMS (mean maximal score) ([3]; vs Saline group): statistically significant reduced
disease onset ([3]; vs Saline group): postponed
level of demyelination (anti-MBP stained spinal cord sections) ([3]; vs Saline group): statistically significantly reduced level
level of inflammation (inflammatory foci, H&E stained spinal cord sections) ([3]; vs Saline group): statistically significantly reduced level
serum NF-L levels ([3]; Day 28, vs Saline group): statistically significant reduced
end score ([3]; EAE score 0-5, vs Saline group): reduced
mortality [4]: No mice died
AUC (area under the curve) of EAE scores ([4]; vs Alum group): statistically significantly improved
MMS (mean maximal score) ([4]; vs Alum group): statistically significantly improved
disease onset ([4]; vs Alum group): statistically significantly improved
end score ([4]; vs Alum group): statistically significantly improved
level of demyelination (anti-MBP stained spinal cord sections) ([4]; vs Alum group): statistically significantly reduced level
level of inflammation (inflammatory foci, H&E stained spinal cord sections) ([4]; vs Alum group): statistically significantly reduced level
plasma NF-L levels ([4]; at termination, vs Alum group): statistically significantly reduced

HCPYCVRYFLRVPSWKITLF [P2]
generation of peptide-specific CD4+ T cell lines from MS patients ([1]; naive CD4+ T cells co-cultured with autologous mDC or LCL in presence of peptide): able to generate P2-specific CD4+ T cell lines from four different MS patients
frequency of effector cells (CD3+CD4+CD154+) ([1]; patients' CD4+ cell lines, overnight co-culture with autologous LCL with peptide vs no peptide): high frequency
specific secretion of cytokines (IL-5 and IL-13) ([2]; culture supernatant of MS026 CD4+ cell line (S11)): specific secretion

QYRLRGKLRAEIENLHRTFDPHFLRVPCWKITLFVIVPVLGP [long C-WT, reference compound]
specific secretion of cytokine (IL-5) [2]: specific secretion

B1: P1 peptide HCHGCGGFLRVPCWKI (peptide)
peptide: HCHGCGGFLRVPCWKI
notes: Synthetic; disclosed in WO2017182528; also called control P1 peptide; prior art peptide P1
binding result [5]: binds
binding result [6]: binds

B2: P7 peptide HCPYCGGFLRVPCWKI (peptide)
peptide: HCPYCGGFLRVPCWKI
notes: P1 with the motif HCHGC replaced by HCPYC
binding result [5]: binds
binding result [6]: binds

HCHGCVRYFLRVPCWKI (P1 with the linker GG replaced by VRY) [P6 peptide HCHGCVRYFLRVPCWKI]
binding result [5]: binds
binding result [6]: binds

B3: P9 peptide KCRCVRYFLRVPSWKITLFKK (peptide)
peptide: KCRCVRYFLRVPSWKITLFKK
notes: P4 with the motif KHCPYC replaced by KCRC
binding result [5]: binds
binding result [6]: binds

KHCPYCVRYFLRVPSWKITLFKK (Synthetic) [P4 peptide KHCPYCVRYFLRVPSWKITLFKK]
binding result [5]: binds
binding result [6]: binds

KHCPYCVRYFLRVPCWKITLFKK (Synthetic) [P5 peptide KHCPYCVRYFLRVPCWKITLFKK]
binding result [5]: binds
binding result [6]: binds

B4: P10 peptide KCRPYCVRYFLRVPSWKITLFKK (peptide)
peptide: KCRPYCVRYFLRVPSWKITLFKK
notes: P4 with the motif KHCPYC replaced by KCRPYC
binding result [5]: binds
binding result [6]: binds

B5: P8 peptide KHCHGCVRYFLRVPSWKITLFKK (peptide)
peptide: KHCHGCVRYFLRVPSWKITLFKK
notes: P4 with the motif KHCPYC replaced by KHCHGC
binding result [5]: binds
binding result [6]: binds

KHCPYCGGFLRVPSWKITLFKK (P4 with the linker VRY replaced by GG) [P11 peptide KHCPYCGGFLRVPSWKITLFKK]
binding result [5]: binds
binding result [6]: binds
